Assay results: patent US20050170330A1, “Angiogensis models using nestin-expressing stem cells to image nascent blood vessels” (AntiCancer, Inc., priority 2003, published 2005)

Columns and labels:
[1] = system: ND-GFP vessels growing from transplanted hair follicles; test: ND-GFP vibrissa follicle transplantation into wounded nude-mouse skin, angiogenesis model; type: in vivo; conditions: nude mice with transplanted ND-GFP vibrissa follicles, compared with carrier-only control group
Excerpt: For transplantation purposes, vibrissa follicles from ND-GFP transgenic mice is surgically obtained as discussed in Example 8. All follicles are then kept in DMEM/F-12 medium containing B-27 supplement (GIBCO/BRL).
Recipient nude mice are anesthetized, and a sample of full-thickness skin is folded and two neighboring full-thickness wounds ˜15 mm apart are made with a 2-mm biopsy punch. ND-GFP vibrissa follicles are then transplanted. The incision is closed with nylon sutures (6-0).
The mice are divided into an experimental group and a control group. The experimental group received a treatment series comprising vascular endothelial growth factor, a known angiogenesis promoting compound in a pharmaceutically acceptable carrier. The control group of mice receives only the carrier.
Following treatment, samples of subcutis of the transplanted mice are subsequently excised and directly observed by fluorescence microscopy and air-dried or prepared for frozen sections for immunohistochemical staining. […]
The mice are divided into an experimental group and a control group. The experimental group received a treatment series comprising vasoinhibin, a known angiogenesis inhibiting compound in a pharmaceutically acceptable carrier. The control group of mice receives only the carrier.

[2] = system: B16F10 murine melanoma cells; test: Cord formation in vitro by B16F10 tumor cells; type: cell-based
Excerpt: B16F10 murine melanoma cells are shown below to mimic endothelial cell behavior and the angiogenic process in vitro and in vivo. Cord formation in vitro by tumor cells is stimulated by hypoxia and vascular endothelial growth factor (VEGF) and inhibited by antibodies against VEGF and the VEGF KDR receptor (VEGF receptor 2).

In the case of vascular endothelial growth factor, the “angiogenic activity based on the amount of GFP activity” value [1] was “higher degree of angiogenic activity” and the “cord formation in vitro by tumor cells” value [2] was “stimulated”.
